According to patent EP0840781B1, “METHODS AND DEVICES FOR THE REMOVAL OF PSORALENS FROM BLOOD PRODUCTS” (Cerus Corporation, priority 1995, dated 1996):
“And” between values parts separate entries of the source, which are not always exact repeats. Equal values may be shown once. Read-outs that look alike come from different tables or passages of the source. One block for each molecule: values may come before it.

Assays:
R17 = test: r-17 bacteriophage assay: R17 treated with compound and UVA, remaining titer by plaque count on Hfr 3000 bacteria; type: cell-based
Procedure: In the r-17 assay, the bacteriophage was placed in a solution with each compound tested and was then irradiated. The ability of the phage to subsequently infect bacteria and inhibit their growth was measured. The bacteriophage was selected for its relatively accessible nucleic acid such that the culture growth inhibition would accurately reflect nucleic acid damage by the test compounds. The bacteriophage assay for nucleic acid binding to test compounds offers a safe and inexpensive procedure to identify compounds likely to display efficient pathogen inactivation. Previous experiments support that the r-17 assay accurately measures HIV-1 sensitivity to similar compounds. […] Modified Eagles Medium (DMEM) to a final phage concentration of 10^9/mL. An aliquot (0.5 mL) was transferred to a 1.5 mL snap-top polyethylene tube. […] Louis, MO). The tubes were placed in a light device as described in EXAMPLE 1 and irradiated for between 1 and 10 minutes. […] To make the dilutions. a 0.100 mL aliquot of the irradiated solution of phage and test compound was added to the first dilution tube of 0.4 mL of media then 0.020 mL of this solution was added to the second tube of 0.5 mL medium (1:25). […] After the top agar hardened, the plates were incubated at 37 °C overnight. The plaque forming units were then counted the following morning and the titer of the phage remaining after phototreatment was calculated based on the dilution factors. The following controls were run: the "phage only" in which phage was not treated with test compound and not irradiated (listed as "starting titer" in the tables below); the "UV only" in which the phage was irradiated in the absence of test compound; and the "dark" control in which the phage/test compound solution was not irradiated before it was diluted and plated. Compounds described herein were also tested at a constant concentration for varying doses of UV light. […] The compound tested was added at the desired concentration and the samples were vortexed. […] Between each 1.0 J/cm^2 intervals, 100µL was removed from each sample and placed in the first corresponding dilution tube, then five sequential dilutions were performed for each compound tested, at all 3 irradiation doses, as described above in this example. […] The contents of each tube was poured into its own LB plate and the plates were incubated overnight at 37 °C. Plaques were counted by visual inspection the following morning.

Pseudomonas = test: Bacterial inactivation by compound plus UVA, colony forming units; type: cell-based; details: 16 µM; 5 J/cm^2 irradiation; starting titer 6.5 logs
Procedure: In this example bacterial inactivation by the photoreactive nucleic acid binding compounds described herein was measured as a function of the ability of the bacteria to subsequently replicate. A gram negative bacteria was chosen as representative of the more difficult bacterial strains to inactivate.
The bacteria a strain of Pseudomonas, was inoculated into LB with a sterile loop and grown overnight in a shaker at 37°C. Based on the approximation that one OD at 610 nm is equivalent to 5 x 10^8 colony forming units (cfu)/mL, a 1:10 dilution of the culture was measured on a spectrophotometer. (manufactured by Shimatsu). The bacterial culture was added to a solution of 15% fetal bovine serum in DMEM to a final bacteria concentration of approximately 10^6/mL. An aliquot (0.8 mL) was transferred to a 1.5 mL snap-top polyethylene tube. An aliquot (0.004-0.040 mL) of the test compound stock solution prepared in water, ethanol or dimethylsulfoxide at 0.80-8.0 mM was added to the tube. Compounds were tested at a concentration of 16 µM. The tubes were placed in a light device as described in EXAMPLE I and irradiated with 1.3 J/cm^2, 1.2 J/cm^2, and finally 2.5 J/cm^2, for a total of 5 J/cm^2. 150 µL were removed for testing after each pulse period. Sterile 13 mL dilution tubes were prepared; each test compound required one tube with 0.4 mL of LB broth and four tubes containing 0.5 mL of LB broth. To make the dilutions, a 0.050 mL aliquot of the irradiated solution of phage and test compound was added to the first dilution tube of […] of media then 0.050 mL of this solution was added to the second tube of 0.5 mL medium (1:10). The second solution was then diluted serially (1:10) into the remaining tubes. 100 µL of the original sample and each dilution are plated separately onto LB agar plates and incubated at 37 °C overnight. The colony forming units were then counted the following morning and the titer of the phage remaining after phototreatment was calculated based on the dilution factors.
The following controls were run: the "bacteria only" in which bacteria was not treated with test compound and not irradiated (listed as "starting titer" in the tables below); the "UV only" in which the bacteria was irradiated in the absence of test compound. Dark controls were not performed here for reasons set forth in Example 12 above.

[1] = test system: Salmonella typhimurium tester strains TA97a, TA98, TA100, TA102, TA1537 and TA1538; details: two-fold or greater increase in revertants above background and dose dependent response; TA100, TA102
From the text: The second property that is important in testing a compound for use in methods described herein is mutagenicity. The most widely used mutagen/carcinogen screening assay is the Ames test. This assay is described by D.M. Maron and B.N. Ames in Mutation Research 113:173 ( 1983) and a specific screen is described in detail in Example 17, below. The Ames test utilizes several unique strains of Salmonella typhimurium that are histidine- dependent for growth and that lack the usual DNA repair enzymes. The frequency of normal mutations that render the bacteria independent of histidine (i.e., the frequency of spontaneous revertants) is low. The test allows one to evaluate the impact of a compound on this revenant frequency.
Because some substances are not mutagenic by themselves, but are converted to a mutagen by metabolic action, the compound to be tested is mixed with the bacteria on agar plates along with the liver extract. The liver extract serves to mimic metabolic action in an animal.
The mixtures are allowed to incubate. Growth of bacteria (if any) is checked by counting colonies.
In this example the compounds described herein are tested for their dark mutagenicity using an Ames assay. The procedures used for the Salmonella mutagenicity test as described in detail by Maron and Ames were followed exactly. Maron, D.M. and B.N. Ames, Mutation Research 113: 173 ( 1983). A brief description for each procedure is given here. The tester strains TA97a, TA98, TA 100, TA102, TA1537 and TA1538 were obtained from Dr. Ames. TA97a, TA98, TA1537 and TA1538 are frameshift tester strains. TA100 and TA102 are base-substitution tester strains. Upon receipt each strain was cultured under a variety of conditions to confirm the genotypes specific to the strains.
The first tests done with the strains were to determine the range of spontaneous reversion for each of the strains. With each mutagenicity experiment the spontaneous reversion of the tester strains to histidine independence was measured and expressed as the number of spontaneous revertants per plate. This served as the background controls.
For all experiments, the pre-incubation procedure was used. In this procedure one vial of each tester strain was thawed and 20 µL of this culture was added to 6 mL of Oxoid Nutrient Broth #2. This solution was allowed to shake for 10 hours at 37°C. In the pre-incubation procedure, 0.1 mL of this overnight culture was added to each of the required number of sterile test tubes. To half of the tubes 0.5 mL of a 10% S-9 solution containing Aroclor 1254 induced rat liver extract (Molecular Toxicology Inc., Annapolis, MD), and MgCl2, KCl, glucose-6-phosphate, NADP, and sodium phosphate buffer (Sigma, St. Louis, Missouri) were added. To the other half of the tubes 0.5 mL of 0.2M sodium phospate buffer, pH 7.4, was used in place of the S-9 mixture (the - S9 samples). Finally 0.1 mL of the test solution containing either 0, 0.1, 0.5, 1, 5, 10, 50, 100, 250, or 500 µg/mL of the test compound was added. The 0.7 mL mixture was vonexed and then pre-incubated while shaking for 20 minutes at 37°C. After shaking, 2 mL of molten top agar supplemented with histidine and biotin were added to the 0.7 mL mixture and immediately poured onto a minimal glucose agar plate (volume of base agar was 20 mL). The top agar was allowed 30 minutes to solidify and then the plates were inverted and incubated for 44 hours at 37°C. After incubation the number of revertant colonies on each plate were counted.
Maron and Ames (1983) describe the conflicting views with regard to the statistical treatment of data generated from the test.

[2] = HPLC retention time as rough estimate of hydrophobicity; type: physicochemical; details: C-18 reversed phase column, methanol / 25 mM KH2PO4 pH 3.5 gradient
Procedure: Adsorption data were then obtained by HPLC. analysis on the test and control samples. Specifically, a 200 µl sample volume of PC was removed from each tube following the incubation period (special care being taken to ensure that no adsorbent particles were removed with the test samples). […] The addition of methanol lyses platelets and precipitates plasma proteins so that psoralen contained within the platelets is not excluded by the assay.
Since each of the psoralens were analyzed using the same type of HPLC assay, one can use the psoralens' relative retention times to rank them according to increasing hydrophobicity. […] Strong interactions with cells or plasma proteins could compete with adsorption, thereby interfering with resin binding.

Male Balb/c mice = test system: Male Balb/c mice
Procedure: Male Balb/c mice were then injected with 0.1 ml of a compound solution via the tail vein. At least 3 mice were injected per dose level Saline only was used as a negative control. For a positive control, cyclophosphamide (cycloPP) was administered at a dose of 30 mg/kg. In the experimental group, the injections were repeated once per day for four days. In the positive control group, the sample was administered only once, on day three. On day 5, several microliters of blood were withdrawn from each subject and smeared on a glass slide. Cells were fixed in absolute methanol and stored in a slide rack.
For analysis, cells were stained with acridine orange and visualized under a fluorescence microscope by counting: (i) the number of reticulocytes per 5000 erythrocytes; and (ii) the number of micronucleated reticulocytes per 1000 reticulocytes. Reticulocytes were distinguished by their red fluorescence due to the presence of RNA. Micronuclei were distinguished by their green fluorescence due to the presence of DNA. The percentage of reticulocytes (%PCE) was then calculated. A decrease in the frequency of erythrocytes, represented by an increase in the percentage of reticulocytes, is an indication of bone marrow toxicity. The percentage of reticulocytes with micronuclei (%PCE with MN) was also calculated. An increase in %PCE with MN is a measure of elastogenicity.
After initial results were determined, the experiment was repeated using increased dose levels, until: (i) Micronucleus formation was seen; or (ii). Bone marrow toxicity was observed; or (iii) The lethal dose was reached; or (iv) A dose of 5 g/kg was administered.

HIV-1 = details: 1 Minute Irradiation, HIV Starting Titer Approximately 5.4 Logs (Table 11)
[3] = positive control, Dose 30 mg/kg administered only once, on day three, one value per experiment, 30 mg/kg

- HPLC retention time (rough estimate of hydrophobicity) [2]: 20.0 min
SMILES: COc1c2occc2c(Br)c2ccc(=O)oc12 [Psoralen B, 5-bromo-8-methoxypsoralen]

- HPLC retention time (rough estimate of hydrophobicity) [2]: 12.0 min
SMILES: CCN(CC)CCCOc1c2occc2c(Br)c2ccc(=O)oc12 [Psoralen C, 5-bromo-8-(diethylaminopropyloxy)-psoralen]

- HPLC retention time (rough estimate of hydrophobicity) [2]: 7.8 min
SMILES: CC[N+](CC)(CC)Cc1c(C)oc2c(C)c3oc(=O)cc(C)c3cc12 [Psoralen A, 4'-(triethylamino) methyl-4,5',8-trimethylpsoralen]

Further lines, the molecule ahead of its results:

SMILES: COc1c2occc2cc2ccc(=O)oc12 [Compound 8-MOP, 8-Methoxypsoralen, reference compound]
- R17 log kill (32 µM) (R17; 32 µM, 1 Minute Irradiation, Starting Titer Approx. 7.5 Logs (Table 6)): 0
- log kill of bacteria (Pseudomonas) (Pseudomonas): 1.9 logs
- base-substitution mutagenicity (Ames, summary) [1]: weak base-substitution mutagen in TA102 at 500µg/plate

SMILES: O=P1(N(CCCl)CCCl)NCCCO1 (stereo not shown) [CycloPP, cyclophosphamide, reference compound]
- PCE + MN (%) (Male Balb/c mice; [3]): 1.98 ± 0.40% and 1.76 ± 0.64%
- PCE/RBC (%) (Male Balb/c mice; [3]): 1.39 ± 0.41% and 1.65 ± 0.64% and 0.99 ±0.33%

SMILES: Cc1cc(=O)oc2c(C)c3oc(CNCCCCN)c(C)c3cc12 [Compound 17, 5'-(6-amino-2-aza)hexyl-4,4',8-trimethylpsoralen]
- efficiency at inactivating R17 compared with AMT (R17; constant concentration, varying doses of UV light 1.0-3.0 J/cm^2 (FIGS. 11-17)): more efficient at inactivating R17 than was AMT
- HIV Log Kill (HIV-1; 16 µM): 1.2
- HIV Log Kill (HIV-1; 32 µM): 2.9
- HIV Log Kill (HIV-1; 64 µM): 3.4
- bone marrow toxicity or micronucleus formation (Male Balb/c mice; experiment repeated using increased dose levels): the acutely lethal dose was reached before there were any signs of bone marrow toxicity or micronucleus formation
